Experimental data taken from publication PMC10744608, “Simplified Synthesis of Renieramycin T Derivatives to Target Cancer Stem Cells via β-Catenin Proteasomal Degradation in Human Lung Cancer” (Marine Drugs, 2023).

Tests used:
Format in all cases: cell-based, human
A549 cells [1] = assay: RT-qPCR of stemness transcription factors; settings: A549, 50 nM, 6 h, normalized to GAPDH
Description: (§1) RNA extraction was performed on DH_32-treated cells (3 × 10^5 cells per well in 6-well plates) using GENEzol as the reagent. Total RNA was used to synthesize cDNA through the application of SuperScript III reverse transcriptase from Invitrogen. Following cDNA synthesis, 100 ng of the cDNA was utilized for RT-qPCR, employing Luna Universal qPCR Master Mix from NEB, UK, in a final volume of 20 µL. The reaction mixture was conducted using the CFX 96 real-time PCR system from Bio-Rad, located in Hercules, CA. For the RT-qPCR, the protocol included an initial denaturation step at 95 °C for 1 min, followed by 45 cycles involving denaturation at 95 °C for 10 s, annealing and extension at 60 °C for 30 s. Melting curve analysis was employed to assess the specificity of the primers. The targeted primer genes were: The gene expression levels were normalized using the GAPDH gene as an internal control. The relative mRNA gene expression level for each gene was determined based on the comparative Cq values. RT acted as the positive control for this experiment.

H23 cells [2] = assay: RT-qPCR of stemness transcription factors; settings: H23, 6 h
Description: as §1

H292 cells [3] = assay: RT-qPCR of stemness transcription factors; settings: H292, 6 h
Description: as §1

[4] = test system: A549, H23, and H292 cells; assay: Immunofluorescence of stem cell markers and transcription factors; settings: A549, H23, and H292, 50 nM, 24 h
Description: (§2) A549, H23, and H292 NSCLC cells were seeded at a concentration of 1 × 10^4 cells per well in 96-well plates. The cells were exposed to different concentrations of DH_32 (0, 25, 50, and 100 nM) for 24 h, after which the medium was removed. Following that, the cells were subjected to fixation with 4% paraformaldehyde for 15 min. The cells were permeabilization with 0.5% Triton-X for 5 min, followed by the blocking of non-specific proteins with 10% FBS in 0.1% Triton-X PBS for 1 h at room temperature. The cells were exposed to a 1:400 dilution of primary antibodies (CD133, CD44, ALDH1A1, OCT4, NANOG, SOX2, and β-catenin) and incubated at 4 °C overnight. On the subsequent day, the cells were treated with a 1:500 dilution of the following secondary antibodies: Alexa Fluor 594-conjugated goat anti-rabbit IgG (H+L) (Invitrogen) and Alexa Fluor 488-conjugated goat anti-mouse IgG (H+L) (Invitrogen). Simultaneously, the localization of nuclei was stained with Hoechst 33342 for 1 h at room temperature. The cells were rinsed with PBS and then covered with 50% glycerol. The images were captured by a fluorescence microscope (Olympus IX 51 with DP70; Olympus America Inc., Center valley, PA, USA). The fluorescence intensity was measured by Image J software. RT acted as the positive control for this experiment.

[5] = test system: CSC spheroids of A549, H23, and H292 cells; assay: 3D CSC spheroid formation with immunofluorescence; settings: 50 nM; for levels of CD133, CD44, and OCT4 in CSC spheroids: 24 h, immunofluorescence
Description: A three-dimensional (3D) spheroid was employed to generate the spheroids containing CSC subpopulations from lung cancer cells. For CSC-rich population establishment, the spheroid culture assay used in this study was slightly modified from a previously described method. Lung cancer cells, specifically NSCLC cells (A549, H23, and H292), were seeded onto a 24-well ultra-low attachment plate, with approximately density of 2.5 × 10^3 cells per well in a medium with a 1% FBS and Nutristem mix. The primary spheroids were allowed to form for 7 days. Every 2 days, fresh medium with 1% FBS and Nutristem mix was replenished. On day 7 of primary spheroid culture, primary spheroids were resuspended into single cells using trypsin, and again 2.5 × 10^3 cells/well were seeded into a 24-well ultra-low attachment plate. Secondary spheroids were allowed to form for 10 days. After 10 days, the secondary spheroids were treated with 50 nM concentration DH_32 for 24 h treatment. The spheroids that had undergone treatment were retrieved through centrifugation at 1000× g for 30 s and then rinsed with PBS. The spheroids were fixed with 4% paraformaldehyde in a 50 μL PBS solution for 20 min at room temperature, and then they were made permeable by treating them with 0.1% Triton X in PBS for 5 min at room temperature. The spheroids were exposed to a mixture of 5% FBS and 2% BSA in PBS for 1 h at room temperature to prevent non-specific protein interactions. Subsequently, the spheroids were incubated with primary antibodies (CD133, CD44, and OCT4) at a 1:250 dilution in a 30 μL PBS solution containing 2.5% FBS and 1% BSA, and this incubation took place overnight at 4 °C. On the subsequent day, the spheroids were rinsed with PBS and then exposed to secondary antibodies (Alexa Fluor 594-conjugated goat anti-rabbit IgG (H+L) and Alexa Fluor 488-conjugated goat anti-mouse IgG (H+L)) at a 1:500 dilution in a 30 μL PBS solution containing 2.5% FBS and 1% BSA at room temperature for 1 h 30 min. These spheroids were subjected to staining with Hoechst 33342 (Sigma, St. Louis, MO, USA) at a concentration of 10 μg/mL for a duration of 15 min at room temperature. Subsequently, the fluorescence signals were observed using a fluorescence microscope (Olympus IX 51 with DP70; Olympus America Inc., Center Valley, PA, USA). The intensity of fluorescence was quantified using Image J software. NSCLC spheroids treated with RT at 50 nM and cisplatin at 50 nM served as the positive control.

A549 cells [6] = assay: Proliferation assay (MTT)
Description: (§3) An MTT assay was employed to evaluate the antiproliferative impact of the right-half RT analog, DH_32, over a period of three consecutive days. The human NSCLC cells lines A549, H23, and H292 were seeded at a cell density of 2 × 10^3 cells per well in a 96-well plate. The cells were exposed to low concentrations (0, 25, 50, and 100 nM) of DH_32 at various time points (0 h, 24 h, 48 h, and 72 h) and then incubated under 5% CO2 at 37 °C. Subsequently, the cell viability was assessed using an MTT assay at 0 h, 24 h, 48 h, and 72 h. The percentage of cell proliferation was determined by dividing the optical density (OD) of the cells at each time point by the OD of the non-treated control cells. In this experiment, RT served as the positive control.

H23 cells [7] = assay: Proliferation assay (MTT); settings: H23, 24 h, 25 nM
Description: as §3

H292 cells [8] = assay: Proliferation assay (MTT); settings: H292, 24 h, 25 nM
Description: as §3

[9] = test system: β-catenin in A549, H292, and H23 cells; assay: Immunofluorescence of β-catenin; settings: 24 h; DH_32 0–100 nM, RT 25 nM
Description: as §2

[10] = A549, 48 h, DH_32 25, 50, and 100 nM, RT 25 and 50 nM

SMILES: COC1=C(C)C(=O)C2=C(C1=O)[C@@H]1CN(Cc3ccc4ccccc4c3)[C@@H](C#N)[C@H](C2)N1C [DH_32, (1R,4R,5S)-9-methoxy-8,11-dimethyl-3-(naphthalen-2-ylmethyl)-7,10-dioxo-1,2,3,4,5,6,7,10-octahydro-1,5-epiminobenzo[d]azocine-4-carbonitrile]
- mRNA expression level of NANOG (A549 cells [1]): 0.4 fold
- mRNA expression level of OCT4 (A549 cells [1]): 0.5 fold
- mRNA expression level of SOX2 (A549 cells [1]): 0.3 fold
- mRNA of OCT4, NANOG, and SOX2 (H23 cells [2]): significantly decreased
- mRNA of OCT4, NANOG, and SOX2 (H292 cells [3]): significantly decreased
- fluorescence signals of stem cell markers CD133, CD44, and ALDH1A1 [4]: approximately 0.5 fold
- fluorescence signals of stem cell transcription factors OCT4, NANOG, and SOX2 [4]: approximately 0.5 fold
- size of spheroid formations [5]: decreased
- levels of CD133, CD44, and OCT4 in CSC spheroids [5]: dramatic decrease
- proliferation rate (A549 cells [6]; A549, 24 h, 50 and 100 nM): decreased proliferation rate
- proliferation rate (A549 cells [6]; [10]): significant reduction in cell proliferation
- proliferation rate (H23 cells [7]): substantial reduction in the proliferation rate
- proliferation rate (H292 cells [8]): substantial reduction in the proliferation rate
- β-catenin level by immunofluorescence [9]: decrease in the fluorescence signal of β-catenin

SMILES: CC=C(C)C(=O)OCC1c2c(c(O)c(C)c3c2OCO3)CC2C3C4=C(CC(C(C#N)N12)N3C)C(=O)C(C)=C(OC)C4=O (centres unmarked) [RT, Renieramycin T]
- levels of CD133, CD44, and OCT4 in CSC spheroids [5]: lesser effects
- proliferation rate (A549 cells [6]; A549, 24 h, 50 and 100 nM): did not affect the proliferation
- proliferation rate (A549 cells [6]; [10]): did not exhibit any effect
- proliferation rate (H23 cells [7]): did not exhibit any change in their proliferation rate
- proliferation rate (H292 cells [8]): did not exhibit any change in their proliferation rate
- β-catenin level by immunofluorescence [9]: unaltered level of β-catenin
